# According to US20260306527A1, “PRMT INHIBITOR COMPOUNDS AND THE USES THEREOF” (Purdue Research Foundation, priority 2023, published 2026):
# Target: PRMT6 (Homo sapiens, UniProt Q96LA8)
# Assay: radioactive assay (Reaction Biology Corp.), inhibition of PRMT6
# Assay type: biochemical
# Settings: not given
# Protocol: (§1) Next, the inhibition activity of the library was investigated for five PRMT members from type I PRMTs.
# (§2) The PRMT 4, 6 and 8 methylation assays were performed by Reaction Biology corp.
# Sequence of PRMT6 (Q96LA8 whole entry, species assumed): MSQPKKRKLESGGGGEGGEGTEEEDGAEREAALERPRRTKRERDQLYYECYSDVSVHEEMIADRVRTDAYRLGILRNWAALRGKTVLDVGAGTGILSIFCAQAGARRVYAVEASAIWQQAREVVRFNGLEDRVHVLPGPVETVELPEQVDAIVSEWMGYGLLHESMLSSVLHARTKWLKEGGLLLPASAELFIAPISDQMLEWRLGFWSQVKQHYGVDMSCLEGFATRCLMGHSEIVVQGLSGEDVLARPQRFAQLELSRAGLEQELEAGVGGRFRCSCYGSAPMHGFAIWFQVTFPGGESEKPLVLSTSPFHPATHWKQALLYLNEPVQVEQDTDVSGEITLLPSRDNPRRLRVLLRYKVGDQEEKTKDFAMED
row,Compound,inhibition at 10 µM [%]
1,N=C(NCCCSC[C@H]1O[C@@H](n2cnc3c(N)ncnc32)[C@H](O)[C@@H]1O)Nc1cccc(-c2ccc(F)nc2)c1 [Compound 6n],99
2,N=C(NCCCN)NCCCSC[C@H]1O[C@@H](n2cnc3c(NCCCc4ccccc4)ncnc32)[C@H](O)[C@@H]1O [Compound 19i],79
3,N=C(NCCCSC[C@H]1O[C@@H](n2cnc3c(NCCCc4ccccc4)ncnc32)[C@H](O)[C@@H]1O)Nc1ccccc1 [Compound 19j],92
4,N=C(NCCCSC[C@H]1O[C@@H](n2cnc3c(NCCCc4ccccc4)ncnc32)[C@H](O)[C@@H]1O)NCc1ccccc1 [Compound 19k],89
5,N=C(NCCCSC[C@H]1O[C@@H](n2cnc3c(NCCCc4ccccc4)ncnc32)[C@H](O)[C@@H]1O)NCCc1ccccc1 [Compound 19l],86
6,N=C(NCCCSC[C@H]1O[C@@H](n2cnc3c(NCCCc4ccccc4)ncnc32)[C@H](O)[C@@H]1O)NCCCc1ccccc1 [Compound 19m],83

# Target: PRMT3 (Homo sapiens, UniProt O60678)
# Sequence (O60678 211-531): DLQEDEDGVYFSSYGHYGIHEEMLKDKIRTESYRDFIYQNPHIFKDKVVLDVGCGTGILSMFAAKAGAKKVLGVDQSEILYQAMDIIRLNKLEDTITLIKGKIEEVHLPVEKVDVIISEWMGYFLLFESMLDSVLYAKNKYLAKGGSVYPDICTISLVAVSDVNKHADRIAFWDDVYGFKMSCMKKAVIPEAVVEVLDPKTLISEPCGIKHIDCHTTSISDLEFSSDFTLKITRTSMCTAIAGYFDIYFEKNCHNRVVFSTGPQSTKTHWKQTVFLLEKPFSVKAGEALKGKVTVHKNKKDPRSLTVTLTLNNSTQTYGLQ
# Assay: SAHH-coupled fluorescence assay, inhibition of PRMT3
# Assay type: biochemical
# Set-up: PRMT3 (residues 211-531) was cloned into the pET28a-MHL expression vector; tag of the pET28a-MHL vector (not described); made in house; host or cells: Escherichia coli BL21(DE3)
# Settings: not given
# In short: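 Coupled SAHH/ThioGlo4 fluorescence read-out (ex 380 nm, em 505 nm) of PRMT3 (0.25 μM) methylation with 30 μM AdoMet and 5 μM SAHH. Buffer was 20 mM Tris pH 7.5 with 0.01% Triton X-100. Run in duplicate.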
row,Compound,inhibition at 10 µM [%]
1,N=C(NCCCSC[C@H]1O[C@@H](n2cnc3c(N)ncnc32)[C@H](O)[C@@H]1O)Nc1cccc(-c2ccc(F)nc2)c1 [Compound 6n],61
2,N=C(NCCCN)NCCCSC[C@H]1O[C@@H](n2cnc3c(NCCCc4ccccc4)ncnc32)[C@H](O)[C@@H]1O [Compound 19i],13
3,N=C(NCCCSC[C@H]1O[C@@H](n2cnc3c(NCCCc4ccccc4)ncnc32)[C@H](O)[C@@H]1O)Nc1ccccc1 [Compound 19j],2
4,N=C(NCCCSC[C@H]1O[C@@H](n2cnc3c(NCCCc4ccccc4)ncnc32)[C@H](O)[C@@H]1O)NCc1ccccc1 [Compound 19k],10
5,N=C(NCCCSC[C@H]1O[C@@H](n2cnc3c(NCCCc4ccccc4)ncnc32)[C@H](O)[C@@H]1O)NCCc1ccccc1 [Compound 19l],9
6,N=C(NCCCSC[C@H]1O[C@@H](n2cnc3c(NCCCc4ccccc4)ncnc32)[C@H](O)[C@@H]1O)NCCCc1ccccc1 [Compound 19m],5

# Target: T1, PRMT1 (Homo sapiens, UniProt Q99873)
# T1 construct: made in house
# T1 sequence (Q99873 whole entry, species assumed): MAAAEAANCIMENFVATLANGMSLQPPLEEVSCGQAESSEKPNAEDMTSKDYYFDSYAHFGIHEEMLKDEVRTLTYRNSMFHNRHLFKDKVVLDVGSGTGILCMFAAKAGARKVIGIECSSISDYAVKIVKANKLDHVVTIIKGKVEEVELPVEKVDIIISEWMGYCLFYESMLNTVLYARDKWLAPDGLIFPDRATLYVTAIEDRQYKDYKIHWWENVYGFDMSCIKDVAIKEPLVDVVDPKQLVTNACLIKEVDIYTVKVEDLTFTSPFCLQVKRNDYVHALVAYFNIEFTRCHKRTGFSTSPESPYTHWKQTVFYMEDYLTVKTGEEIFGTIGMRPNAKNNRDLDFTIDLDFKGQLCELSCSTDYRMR
# Assay: SAHH-coupled fluorescence assay, inhibition of PRMT1
# Assay type: biochemical
# Settings: not given
# In short: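 PRMT1 (0.1 μM) was run with 10 μM AdoMet, 5 μM SAHH and 10 μM ThioGlo4 in 2.5 mM HEPES pH 7.0, 25 mM NaCl, 25 μM EDTA, 50 μM TCEP and 0.01% Triton X-100. Fluorescence (ex 400/em 465 nm) was monitored for 15 min. Assays were done in duplicate.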
row,Compound,inhibition at 10 µM [%]
1,N=C(NCCCSC[C@H]1O[C@@H](n2cnc3c(N)ncnc32)[C@H](O)[C@@H]1O)Nc1cccc(-c2ccc(F)nc2)c1 [Compound 6n],91
2,N=C(NCCCN)NCCCSC[C@H]1O[C@@H](n2cnc3c(NCCCc4ccccc4)ncnc32)[C@H](O)[C@@H]1O [Compound 19i],89
3,N=C(NCCCSC[C@H]1O[C@@H](n2cnc3c(NCCCc4ccccc4)ncnc32)[C@H](O)[C@@H]1O)Nc1ccccc1 [Compound 19j],83
4,N=C(NCCCSC[C@H]1O[C@@H](n2cnc3c(NCCCc4ccccc4)ncnc32)[C@H](O)[C@@H]1O)NCc1ccccc1 [Compound 19k],89
5,N=C(NCCCSC[C@H]1O[C@@H](n2cnc3c(NCCCc4ccccc4)ncnc32)[C@H](O)[C@@H]1O)NCCc1ccccc1 [Compound 19l],90
6,N=C(NCCCSC[C@H]1O[C@@H](n2cnc3c(NCCCc4ccccc4)ncnc32)[C@H](O)[C@@H]1O)NCCCc1ccccc1 [Compound 19m],87

# Same assay, conditions: read-out: IC50 FOR PRMT1
row,Compound,IC50 [µM]
1,N=C(NCCCN)NCCCSC[C@H]1O[C@@H](n2cnc3c(NCCCc4ccccc4)ncnc32)[C@H](O)[C@@H]1O [Compound 19i],1.3 ± 0.066
2,N=C(NCCCSC[C@H]1O[C@@H](n2cnc3c(NCCCc4ccccc4)ncnc32)[C@H](O)[C@@H]1O)Nc1ccccc1 [Compound 19j],0.46 ± 0.074
3,N=C(NCCCSC[C@H]1O[C@@H](n2cnc3c(NCCCc4ccccc4)ncnc32)[C@H](O)[C@@H]1O)NCc1ccccc1 [Compound 19k],0.48 ± 0.079
4,N=C(NCCCSC[C@H]1O[C@@H](n2cnc3c(NCCCc4ccccc4)ncnc32)[C@H](O)[C@@H]1O)NCCc1ccccc1 [Compound 19l],0.5 ± 0.075
5,N=C(NCCCSC[C@H]1O[C@@H](n2cnc3c(NCCCc4ccccc4)ncnc32)[C@H](O)[C@@H]1O)NCCCc1ccccc1 [Compound 19m],0.74 ± 0.08

# Same assay, conditions: read-out: IC50[μM] | PRMT1
row,Compound,IC50 [µM]
1,N=C(NCCCSC[C@H]1O[C@@H](n2cnc3c(N)ncnc32)[C@H](O)[C@@H]1O)Nc1cccc(-c2ccc(F)nc2)c1 [Compound 6n],0.35 ± 0.073

# Target: T2, PRMT4 (Homo sapiens, UniProt Q86X55)
# T2 sequence (Q86X55 1-608): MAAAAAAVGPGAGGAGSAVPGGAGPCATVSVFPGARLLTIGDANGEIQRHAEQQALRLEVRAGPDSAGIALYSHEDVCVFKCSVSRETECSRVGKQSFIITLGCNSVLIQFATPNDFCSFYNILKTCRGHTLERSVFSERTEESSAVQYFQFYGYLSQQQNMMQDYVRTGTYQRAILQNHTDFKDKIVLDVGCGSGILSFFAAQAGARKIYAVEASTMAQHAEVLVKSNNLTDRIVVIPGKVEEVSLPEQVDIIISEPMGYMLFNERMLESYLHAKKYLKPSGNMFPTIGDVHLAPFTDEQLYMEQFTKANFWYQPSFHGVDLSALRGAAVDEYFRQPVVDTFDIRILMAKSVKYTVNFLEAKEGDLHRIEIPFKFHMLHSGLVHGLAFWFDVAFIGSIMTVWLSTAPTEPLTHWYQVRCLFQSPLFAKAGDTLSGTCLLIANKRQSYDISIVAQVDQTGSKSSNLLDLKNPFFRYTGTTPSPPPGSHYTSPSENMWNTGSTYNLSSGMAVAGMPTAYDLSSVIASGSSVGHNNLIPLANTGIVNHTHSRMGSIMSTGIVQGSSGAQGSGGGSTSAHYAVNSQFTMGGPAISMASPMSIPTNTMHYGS
# Assay: radioactive assay (Reaction Biology Corp.), inhibition of PRMT4
# Assay type: biochemical
# Settings: not given
# Protocol: as §1, §2
row,Compound,inhibition at 10 µM [%]
1,N=C(NCCCSC[C@H]1O[C@@H](n2cnc3c(N)ncnc32)[C@H](O)[C@@H]1O)Nc1cccc(-c2ccc(F)nc2)c1 [Compound 6n],100
2,N=C(NCCCN)NCCCSC[C@H]1O[C@@H](n2cnc3c(NCCCc4ccccc4)ncnc32)[C@H](O)[C@@H]1O [Compound 19i],37
3,N=C(NCCCSC[C@H]1O[C@@H](n2cnc3c(NCCCc4ccccc4)ncnc32)[C@H](O)[C@@H]1O)Nc1ccccc1 [Compound 19j],54
4,N=C(NCCCSC[C@H]1O[C@@H](n2cnc3c(NCCCc4ccccc4)ncnc32)[C@H](O)[C@@H]1O)NCc1ccccc1 [Compound 19k],44
5,N=C(NCCCSC[C@H]1O[C@@H](n2cnc3c(NCCCc4ccccc4)ncnc32)[C@H](O)[C@@H]1O)NCCc1ccccc1 [Compound 19l],26
6,N=C(NCCCSC[C@H]1O[C@@H](n2cnc3c(NCCCc4ccccc4)ncnc32)[C@H](O)[C@@H]1O)NCCCc1ccccc1 [Compound 19m],58

# Target: PRMT8 (Homo sapiens, UniProt Q9NR22)
# Sequence (Q9NR22 whole entry, species assumed): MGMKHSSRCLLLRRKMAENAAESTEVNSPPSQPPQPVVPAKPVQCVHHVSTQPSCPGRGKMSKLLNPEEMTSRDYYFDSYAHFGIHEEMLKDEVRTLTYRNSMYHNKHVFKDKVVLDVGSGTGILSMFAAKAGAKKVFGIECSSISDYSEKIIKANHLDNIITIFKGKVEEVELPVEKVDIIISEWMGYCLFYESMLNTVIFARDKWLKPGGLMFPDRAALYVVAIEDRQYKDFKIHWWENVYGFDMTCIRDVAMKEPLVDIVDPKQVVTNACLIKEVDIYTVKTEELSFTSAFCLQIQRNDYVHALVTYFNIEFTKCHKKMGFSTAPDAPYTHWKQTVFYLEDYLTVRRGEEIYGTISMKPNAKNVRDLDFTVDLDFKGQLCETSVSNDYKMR
# Assay: radioactive assay (Reaction Biology Corp.), inhibition of PRMT8
# Assay type: biochemical
# Settings: not given
# Protocol: as §1, §2
row,Compound,inhibition at 10 µM [%]
1,N=C(NCCCSC[C@H]1O[C@@H](n2cnc3c(N)ncnc32)[C@H](O)[C@@H]1O)Nc1cccc(-c2ccc(F)nc2)c1 [Compound 6n],100
2,N=C(NCCCN)NCCCSC[C@H]1O[C@@H](n2cnc3c(NCCCc4ccccc4)ncnc32)[C@H](O)[C@@H]1O [Compound 19i],74
3,N=C(NCCCSC[C@H]1O[C@@H](n2cnc3c(NCCCc4ccccc4)ncnc32)[C@H](O)[C@@H]1O)Nc1ccccc1 [Compound 19j],86
4,N=C(NCCCSC[C@H]1O[C@@H](n2cnc3c(NCCCc4ccccc4)ncnc32)[C@H](O)[C@@H]1O)NCc1ccccc1 [Compound 19k],83
5,N=C(NCCCSC[C@H]1O[C@@H](n2cnc3c(NCCCc4ccccc4)ncnc32)[C@H](O)[C@@H]1O)NCCc1ccccc1 [Compound 19l],87
6,N=C(NCCCSC[C@H]1O[C@@H](n2cnc3c(NCCCc4ccccc4)ncnc32)[C@H](O)[C@@H]1O)NCCCc1ccccc1 [Compound 19m],85

# System: PRMT3
# Assay: SAHH-coupled fluorescence assay, inhibition of PRMT3
# Assay type: biochemical
# Settings: read-out: IC50[μM] | PRMT3
# Protocol: A fluorescence-based SAHH-coupled assay was applied to study the inhibition activity of all synthesized compounds on PRMT 1 and 3.
# (§3) The PRMT3 methylation assay was performed under the following conditions in a final well volume of 100 μL: 20 mM Tris (pH=7.5), 0.01% Triton X-100, 5 μM SAHH, 0.25 μM PRMT3, 30 μM AdoMet, and 15 μM ThioGlo4. […] Fluorescence was monitored on a BMG CLARIOstar microplate reader with excitation 380 nm and emission 505 nm. Data were processed by using GraphPad Prism software 8.0. All experiments were performed in duplicate.
# as §1
# as §3, with “8.0.” for “8.0. All experiments were performed in duplicate.”
row,Compound,IC50 [µM]
1,N=C(NCCCSC[C@H]1O[C@@H](n2cnc3c(N)ncnc32)[C@H](O)[C@@H]1O)Nc1cccc(-c2ccc(F)nc2)c1 [Compound 6n],4.2 ± 0.61
